{"source": "patent US12048683B2", "about": "“Kaempferol analog-containing composition” (OTSUKA PHARMACEUTICAL CO., LTD., priority 2017, dated 2024)", "key": {"healthy adult males": {"test_system": "healthy adult males", "assay": "Incremental loading exercise test with bicycle", "type": "in vivo, human", "conditions": "compared with no intake of kaempferol", "protocol": "For 25 healthy adult males, 3 dosages of kaempferol-containing cookie-shaped foods (containing 2.5 mg, 10 mg, or 25 mg of kaempferol, respectively) and a placebo cookie-shaped food (kaempferol-free) were used as test foods, and a once-a-day ingestion for consecutive 8 days were repeated four times by the crossover method. 3 hours after a test food ingestion on day 1 (Single ingestion) and on day 8 (Consecutive ingestion), an incremental loading exercise with bicycle was performed while sampling the exhaled gas to determine the oxygen consumption. The Heart rate and the rating of perceived exertion were monitored during exercise. Dynamic/kinetic visual acuity was measured before and after the exercise. Details of each endpoint are given below. Oxygen consumption (VO2) (mL/min/kg) was calculated from the difference between the amount of oxygen in the inhaled gas (atmosphere) and the amount of oxygen in the exhaled gas. When a weight of the pedal approaches a subject's limit during incremental loading exercise with bicycle, a heart rate (HR) is maximized. The increase in heart rate from the resting heart rate to the maximum heart rate was defined as 100% of exercise intensity, and the oxygen consumption (VO2) was plotted at each exercise intensity. That is, for example, an exercise intensity of 50% HR is calculated by the following equation: 100×(x−Resting heart rate)/(Maximum heart rate−Resting heart rate)=50% HR, and the oxygen consumption (VO2) in which the heart rate is the “x” means “oxygen consumption (VO2) at an exercise intensity of 50% HR”. Oxygen consumption efficiency was calculated by the following equation. Oxygen consumption efficiency (VO2/VE)=oxygen consumption/ventilation The oxygen uptake efficiency slope (OUES) was calculated using the ventilation and VO2 every 1 min from the beginning of the incremental loading exercise. Specifically, a graph of linearity was obtained by plotting “logarithmic value of ventilation (VE)” on the horizontal axis and “VO2” on the vertical axis, and the slope of the linear function graph was defined as OUES. For details, see Non-Patent Document 5. Exercise intensity (% HR) and rating of perceived exertion (RPE) at the oxygen consumption (VO2) of 14 mL/min/kg and 24.5 mL/min/kg in incremental loading exercise (the levels of stair climbing and jogging, respectively) were evaluated. The calculation methods for oxygen consumption (VO2) and exercise intensity (% HR) are the same as those described above. The perceived exertion was rated by the subject according to the following table at 1-minute intervals from the beginning of the incremental loading exercise, and the scales rated by each subject were averaged to give the rating of perceived exertion (RPE)."}, "healthy male adults": {"test_system": "healthy male adults", "assay": "Effect on performance in 400 m run", "type": "in vivo, human", "conditions": "single ingestion, 10 mg aglycone equivalent, 3 hours before run; placebo group −0.11 seconds", "protocol": "A two-group and two-phase crossover study (single ingestion) was conducted for 13 healthy male adults. In the study, a kaempferol-containing capsule-shaped food (SNR 14) wherein the aglycone equivalent value is 10 mg; and a placebo capsule-shaped food: Placebo (kaempferol free) were used as test foods. Three hours after taking the test food, the subjects sprinted 400 m, and sprinted 400 m again after a 90 minute interval. Respiratory rate and heart rate were monitored during the sprint. The expiratory mouth pressure was measured by the maximum mouth pressure method, before and after the 400 m runs, using an electronic spirometer, autospyro (Minato Medical Science Co., Ltd.). The subjects inhaled to the limit after three deep breaths in a standing position and then exhaled with full force into the mouthpiece for measurement while preventing air leakage from the nose to determine expiratory mouth pressure."}, "[1]": {"conditions": "at oxygen consumption (VO2) of 14 and 24.5 mL/min/kg (stair climbing and jogging levels), single and consecutive ingestion"}, "[2]": {"conditions": "single ingestion and consecutive ingestion"}}, "data": [{"smiles": "O=c1c(O)c(-c2ccc(O)cc2)oc2cc(O)cc(O)c12", "note": "[kaempferol]", "values": [{"measurement": "oxygen consumption (VO2)", "setting": "healthy adult males; at all exercise intensities (50%, 60%, 70%, 80%, 90%, and 100% HR), single ingestion and consecutive ingestion (8 days), 2.5, 10 or 25 mg kaempferol cookie", "value": "increased"}, {"measurement": "exercise intensity (% HR)", "setting": "healthy adult males; [1]", "value": "decreased"}, {"measurement": "rating of perceived exertion (RPE)", "setting": "healthy adult males; [1]", "value": "decreased"}, {"measurement": "maximum exercise load (Pedal Weight (watt))", "setting": "healthy adult males; [2]", "value": "increased"}, {"measurement": "maximum oxygen consumption (VO2peak)", "setting": "healthy adult males; [2]", "value": "increased"}, {"measurement": "oxygen consumption efficiency (VO2/VE)", "setting": "healthy adult males; [2]", "value": "increased"}, {"measurement": "oxygen uptake efficiency slope (OUES)", "setting": "healthy adult males; [2]", "value": "increased"}, {"measurement": "mean time change between the 1st and 2nd 400 m runs", "setting": "healthy male adults", "value": -0.77, "unit": "s"}]}]}
